Source: patent US20250052751A1, “COMPOSITIONS AND METHODS FOR DIAGNOSING AUTOIMMUNE AQUAPORINOPATHY” (The Regents of the University of California, priority 2023, published 2025)
“Also recorded” adds a separate entry of the source.

Columns and labels:
[1] = test system: draining lymph node cells; assay: Proliferation assay, ^3H-thymidine incorporation after s.c. peptide immunization; type: cell-based, mouse
Procedure: FIGS. 2A-2F. Pathogenic AQP4 determinants bind I-A^b with high affinity and elicit proliferation of AQP4: I-A^b-specific TCR-bearing T cells in AQP4-deficient mice. (FIG. 2A) WT or AQP4^−/− mice were immunized s.c. with peptides indicated. Peptide-specific proliferation of draining lymph node cells was measured by 3H-thymidine incorporation (mean±SEM, representative of five experiments). (FIG. 2B) Lymph node cells from AQP4 immunized WT or AQP4^−/− mice were cultured for 3 days with cognate antigen under Th17 polarizing conditions. AQP4 p133-149- and p202-218-specific Th17 cells from AQP4/donors induce paralysis in WT recipient mice. (FIG. 2C) IEDB, an in silico method for predicting determinants within proteins that bind MHC alleles, was used to identify AQP4 amino acid sequences anticipated to bind I-A^b for recognition by AQP4-specific/I-A^b-restricted CD4^+ T cells. 1/IC50 is plotted against the first amino acid for each overlapping AQP4 15 mer. Peaks correspond to increased predicted binding affinity. (FIG. 2D) Purified I-A^b molecules were tested biochemically for peptide binding affinity using a competitive binding assay between a radiolabeled high-affinity competitor peptide and unlabeled peptides (22). Lower IC50 values indicate higher binding affinity. Boxed amino acids designate the core binding regions. (FIGS. 2E-2F) Lymph node T cells isolated from WT or AQP4−/− mice immunized with AQP4 p133-149 or p202-218 were stained with I-A^b:p133-149 and […] tetramers, bead-enriched and analyzed by flow cytometry. […] Each data point represents one mouse. ****p<0.0001 (Mann Whitney U test).
(§1) FIGS. 4A-4B. Negative selection of AQP4 p133-149-reactive T cells is bypassed partially in mice deficient in thymic AQP4 expression. (FIG. 4A) AQP4^−/− WT, Foxn1cre-AQP4^fl/fl, Aire^−/−, or Foxn1cre-Fezf2^fl/fl mice were immunized s.c. with peptides indicated. Peptide-specific proliferation of draining lymph node cells was measured by 3H-thymidine incorporation (mean±SEM, representative of five experiments). Comparisons within the five experiments for p133-149 at […]: WT vs. AQP4^−/− (p=0.008), WT vs. Foxn1cre-AQP4^fl/fl (p=0.008). (FIG. 4B) Ten days after peptide immunization, CD4^+ T cells from draining lymph nodes were analyzed for I-A^b: peptide tetramer binding by flow cytometry. Each data point represents the frequency (mean±SEM) of CD4^+ T cells bound to cognate antigen-tetramer in a single mouse. […] For p133-149: WT vs. Aire^−/− (p=0.9), WT vs. Foxn1cre-Fezf2^fl/fl (p=0.3). For p202-218: WT vs. Foxn1cre-AQP4^fl/fl (p=0.3), WT vs. Aire^−/− (p=0.06).
Proliferation assays. Mice were immunized subcutaneously (s.c.) with 100 μg of AQP4, MOG or IRBP peptide in CFA containing 400 μg M. tuberculosis H37Ra (Difco Laboratories). Lymph nodes were harvested on day 10-12 and cultured at 2×10^5/well with various concentrations of peptide in triplicate wells for 72 hours. […] of ^3H-thymidine was added 18 hours prior to cell harvest, and data are presented as counts per minute (CPM). Stimulation Index (SI) was calculated by dividing CPM in wells with Ag by CPM in wells with no antigen controls of each assay test group.

CD4^+ T cells = assay: I-A^b:peptide tetramer binding by flow cytometry after peptide immunization; type: cell-based, mouse
Procedure: as §1
Flow cytometry. For analysis of tetramer binding, AQP4 p133-149, p202-218, IRBP p277-289 and hCLIP p87-101 IA^b tetramers conjugated to PE or APC were provided by the National Institute of Allergy and Infectious Diseases Tetramer Core Facility at Emory University. Lymphocytes were coincubated with 1 mg/ml tetramer conjugated to PE or APC for 2 hours at room temperature, washed and enriched using anti-PE magnetic microbeads (Miltenyi) over a magnetic column. Binding to hCLIP tetramer was used as a negative control. Dead cells were excluded using Live/Dead fixable Aqua Dead Cell Stain Kit (Invitrogen), lineage negative cells were excluded using antibodies to CD11b (M1/70), B220 (RA3-6B2) and CD8 (53-6.7) and positive cells were selected using antibodies to CD3 (145-2C11) and CD4 (RM4.5). 123count eBeads (Invitrogen) were used with unenriched and enriched samples for quantification of the frequency of tet^+CD4^+ T cells (total number of tet^+CD4+ T cells divided by total CD4^+ T cells per mouse). For figures showing tetramer staining, flow cytometry of the unenriched cells are shown. For analysis of GFP^+ T cells, mice were perfused with PBS, and the CNS was dissected, minced, digested with collagenase and DNase I (Roche), and isolated over a Ficoll gradient as described previously (39). Live CD4^+ cells were analyzed with a viability stain (Near-IR), and antibodies to CD11b, B220, CD8 and CD4. Apoptosis was analyzed separately using the same antibody staining, followed by Annexin V and 7-AAD staining in Annexin V binding buffer (BioLegend) per manufacturer's instructions. Cells were quantified using 123count eBeads.

Foxn1cre-AQP4^fl/fl mice = assay: CNS autoimmunity by direct peptide immunization; type: in vivo, mouse
[2] = AQP4^−/− mice immunized with the peptide
[3] = Aire^−/− mice immunized with the peptide
[4] = Foxn1cre-AQP4^fl/fl mice immunized with the peptide
[5] = WT mice immunized with the peptide
[6] = AQP4^−/− mice compared with the other strains, cognate I-A^b:peptide tetramer
[7] = Foxn1cre-AQP4^fl/fl (thymic AQP4-deficient) mice compared with WT mice

Row | Sequence | peptide-specific proliferation of draining lymph node cells [1, 2] | peptide-specific proliferation of draining lymph node cells [1, 3] | peptide-specific proliferation of draining lymph node cells [1, 4] | peptide-specific proliferation of draining lymph node cells [1, 5] | frequency of CD4^+ tet^+ T cells (CD4^+ T cells; [6]) | frequency of CD4^+ tet^+ T cells (CD4^+ T cells; [7]) | peptide-specific proliferation of draining lymph node cells ([1]; AQP4^−/− mice immunized with the peptide, listed as p133-149) | peptide-specific proliferation of draining lymph node cells ([1]; Foxn1cre-Fezf2^fl/fl mice immunized with the peptide) | frequency of CD4^+ tet^+ T cells (CD4^+ T cells; Foxn1cre-AQP4^fl/fl mice compared with AQP4^−/− mice) | CNS autoimmunity by immunization (Foxn1cre-AQP4^fl/fl mice)
1 | LFAINYTGASMNPARSF [AQP4 p202-218] | robust proliferative responses; also recorded: strong proliferation | no significant responses | only marginal responses | no significant responses | elevated in AQP4^−/− mice in comparison to other strains | did not permit significant restoration | – | – | – | –
2 | LYLVTPPSVVGGLGVT [AQP4 p133-149] | robust proliferative T cell responses | little or no proliferation | induced proliferation in Foxn1cre-AQP4^fl/fl mice, but not to the same level as in AQP4^−/− mice | little or no proliferation | significantly elevated in AQP4^−/− mice | significantly elevated in comparison to AQP4 p133-149-specific T cells in WT mice | robust proliferative responses | little or no proliferation | significantly lower than in AQP4^−/− mice | resistant to CNS autoimmunity
